Measurements from patent US9738629B2, “Bridged ring compounds as Hepatitis C virus inhibitors, pharmaceutical compositions and uses thereof” (SUNSHINE LAKE PHARMA CO., LTD., priority 2014, dated 2017).

Tests used:
[1] = tested on: HCV GT1b replicon; experiment: HCV replicon assay, genotype 1b, in Huh-7 cells; type: cell-based; conditions: Hepatitis C virus; Huh-7 cells stably transfected with HCV GT1b replicon, 72 hours incubation; luciferase or NEO gene qPCR readout; read-out: EC50 against HCV 1b genotype
Description: (§1) HCV Replicon System was utilized as a screening model in the present disclosure to evaluate the antivirus effects of the compounds disclosed herein against HCV. HCV Replicon assay was first described in Science, 1999, 285 (5424), 110-3. […] To determine the potential anti-HCV effects of the test compounds, luciferase assay and antibiotic Neomycin resistance gene were tested according to the method described in Science. 1999 Jul. 2; 285 (5424), 110-3 and J. Virol. 2003 March; 77 (5), 3007-19.
(§2) In a word, the compounds disclosed herein were tested by using human hepatic carcinoma cell line Huh-7 which is transfected stably with HCV GT1a, GT1b or GT2a replicon respectively, and resistant cells of Y93H, L31F, P32L or I302V and wild-type cells HCV 1b. HCV Replicon System disclosed herein contains G418 resistance gene NEO and Luciferase Reporter Gene, and the level of HCV replication in host cells is detected and characterized by the expression level of the NEO gene or Luciferase Reporter Gene, so the effects of the compounds herein inhibit HCV replication can be evaluated in this system. In this article, a real-time quantitative polymerase chain reaction (qPCR) method was used to detect NEO gene expression level, and chemiluminescence method was used to test Luciferase Reporter Gene expression level.
(§3) The Huh-7 cells transfected with HCV replicons system were seeded into 96-well plates (8,000 cells in 125 μL/well) respectively; each test compound was diluted to desired concentration using 5-fold serial dilutions protocol, 10 doses in duplicate (initial concentration for 10 nM) and added to wells with POD™ 810 Plate Assembler. The plates were incubated in a CO2 incubator for 72 hours; after that, 40 μL of Luciferase assay substrate (Promega Bright-Glo) was added to each well, and detected by a chemiluminescence detection system (Topcount Microplate Scintillation and Luminescence Counter) 5 minutes later; the EC50 (half-maximal effective concentration, concentration for 50% of maximal effect) values of test compounds were analyzed by GraphPad Prism software. In this paper, experiments were repeated twice and set the wells without compounds as negative control.
as §3, with “hours;” for “hours; after that, 40 μL of Luciferase assay substrate (Promega Bright-Glo) was added to each well,”, “the expression level of the NEO gene expression with real-time quantitative PCR” for “by a chemiluminescence detection system (Topcount Microplate Scintillation and Luminescence Counter) 5 minutes”, “software, respectively.” for “software.”

[2] = tested on: HCV GT1a replicon; experiment: HCV replicon assay, genotype 1a, in Huh-7 cells; type: cell-based; conditions: Hepatitis C virus; Huh-7 cells stably transfected with HCV GT1a replicon, 72 hours incubation; luciferase or NEO gene qPCR readout; read-out: EC50 against HCV 1a genotype
Description: as §1, §2, §3
as §3, with “hours;” for “hours; after that, 40 μL of Luciferase assay substrate (Promega Bright-Glo) was added to each well,”, “the expression level of the NEO gene expression with real-time quantitative PCR” for “by a chemiluminescence detection system (Topcount Microplate Scintillation and Luminescence Counter) 5 minutes”, “software, respectively.” for “software.”

COC(=O)N[C@H](C(=O)N1C[C@@H](C)C[C@H]1c1ncc(-c2ccc(-c3ccc(-c4ccc5nc([C@@H]6CC[C@H](C)N6C(=O)[C@@H](NC(=O)OC)C6CCOCC6)[nH]c5c4)c4c3C3CCC4C3)cc2)[nH]1)C(C)C (stereo partly shown) [Example 7]
EC50 [1]: 5 pM
EC50 [2]: 87 pM

COC(=O)N[C@H](C(=O)N1C[C@@H](C)C[C@H]1c1ncc(-c2ccc(-c3ccc(-c4ccc5nc([C@@H]6CC[C@H](C)N6C(=O)[C@H](NC(=O)OC)c6ccccc6)[nH]c5c4)c4c3C3CCC4C3)cc2)[nH]1)C(C)C (stereo partly shown) [Example 6]
EC50 [1]: 6 pM
EC50 [2]: 32 pM

COC(=O)N[C@H](C(=O)N1[C@@H](C)CC[C@H]1c1nc2ccc(-c3ccc(-c4ccc(-c5cnc([C@@H]6C[C@@H]7CCC[C@@H]7N6C(=O)[C@@H](NC(=O)OC)[C@@H](C)OC)[nH]5)cc4)c4c3C3CCC4C3)cc2[nH]1)C(C)C (stereo partly shown) [Example 11]
EC50 [1]: 12 pM
EC50 [2]: 235 pM

COC[C@H]1C[C@@H](c2ncc(-c3ccc(-c4ccc(-c5ccc6nc([C@@H]7CC[C@H](C)N7C(=O)[C@@H](NC(=O)OC)C(C)C)[nH]c6c5)c5c4C4CCC5C4)cc3)[nH]2)N(C(=O)[C@@H](NC(=O)OC)C(C)C)C1 (stereo partly shown) [Example 9]
EC50 [1]: 8 pM
EC50 [2]: 123 pM

CCC(C)[C@H](NC(=O)OC)C(=O)N1C[C@@H](CC)C[C@H]1c1ncc(-c2ccc(-c3ccc(-c4ccc5nc([C@@H]6CC[C@H](C)N6C(=O)[C@@H](NC(=O)OC)C(C)C)[nH]c5c4)c4c3C3CCC4C3)cc2)[nH]1 (stereo partly shown) [Example 10]
EC50 [1]: 9 pM
EC50 [2]: 57 pM

COC(=O)N[C@H](C(=O)N1C[C@@H](C)C[C@H]1c1nc2ccc(-c3ccc(-c4ccc(-c5cnc(C6CC[C@H](C)N6C(=O)[C@@H](NC(=O)OC)C(C)C)[nH]5)cc4)c4c3C3CCC4C3)cc2[nH]1)C(C)C (stereo partly shown) [Example 2]
EC50 [1]: 4 pM
EC50 [2]: 4 pM

COC(=O)NC(C(=O)N1C[C@@H](C)CC1c1ncc(-c2ccc(-c3ccc(-c4ccc5nc([C@@H]6CC[C@H](C)N6C(=O)[C@@H](NC(=O)OC)C(C)C)[nH]c5c4)c4c3C3CCC4C3)cc2)[nH]1)c1ccccc1 (stereo partly shown) [Example 5]
EC50 [1]: 7 pM
EC50 [2]: 98 pM

COC(=O)N[C@H](C(=O)N1C[C@@H](C)CC1c1ncc(-c2ccc(-c3ccc(-c4ccc5nc([C@@H]6CC[C@H](C)N6C(=O)[C@@H](NC(=O)OC)C(C)C)[nH]c5c4)c4c3C3CCC4C3)cc2)[nH]1)C(C)C (stereo partly shown) [Example 4]
EC50 [1]: 5 pM
EC50 [2]: 131 pM

COC(=O)N[C@H](C(=O)N1C(c2ncc(-c3ccc(-c4ccc(-c5ccc6nc([C@@H]7CC[C@H](C)N7C(=O)[C@@H](NC(=O)OC)C(C)C)[nH]c6c5)c5c4C4CCC5C4)cc3)[nH]2)CC[C@@H]1C)C(C)C (stereo partly shown) [Example 3]
EC50 [1]: 5 pM
EC50 [2]: 8 pM

CC[C@H]1CC[C@@H](c2nc3ccc(-c4ccc(-c5ccc(-c6cnc([C@@H]7C[C@H](C)CN7C(=O)[C@@H](NC(=O)OC)C(C)C)[nH]6)cc5)c5c4C4CCC5C4)cc3[nH]2)N1C(=O)[C@@H](NC(=O)OC)C(C)C (stereo partly shown) [Example 8]
EC50 [1]: 9 pM
EC50 [2]: 63 pM

COC(=O)N[C@H](C(=O)N1C(c2ncc(-c3ccc(-c4ccc(-c5cnc([C@@H]6CC[C@H](C)N6C(=O)[C@@H](NC(=O)OC)C(C)C)[nH]5)c5c4C4CCC5C4)cc3)[nH]2)CC[C@@H]1C)C(C)C (stereo partly shown) [Example 1]
EC50 [1]: 4 pM
EC50 [2]: 19 pM
